Test results as given in patent US12202835B2, “Substituted aromatic ring-linked dioxinoquinazolines and dioxinoquinolines as kinase inhibitors” (BEIJING SCITECH-MQ PHARMACEUTICALS LIMITED, priority 2018, dated 2025).

Assays:
EBC1 cells = assay: Assay for inhibiting the proliferation of EBC1 cells (CCK-8); format: cell-based; settings: Homo sapiens, EBC-1
Procedure, shortened: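 Cells seeded in 96-well plates overnight, then exposed 72 h to 9 three-fold dilutions of compound (0.25% DMSO final). Viability by CCK-8 (1-2 h at 37° C., OD 450 nm), survival normalized to untreated and cell-free blanks; IC50 by curve fitting.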

c-MET kinase = c-MET kinase (Homo sapiens (Human), UniProt P08581); assay: Assay of small molecular compounds for inhibiting the activity of c-MET kinase (LANCE TR-FRET); format: biochemical; settings: read-out: CMET IC50
Sequence of c-MET kinase (P08581 25-1390): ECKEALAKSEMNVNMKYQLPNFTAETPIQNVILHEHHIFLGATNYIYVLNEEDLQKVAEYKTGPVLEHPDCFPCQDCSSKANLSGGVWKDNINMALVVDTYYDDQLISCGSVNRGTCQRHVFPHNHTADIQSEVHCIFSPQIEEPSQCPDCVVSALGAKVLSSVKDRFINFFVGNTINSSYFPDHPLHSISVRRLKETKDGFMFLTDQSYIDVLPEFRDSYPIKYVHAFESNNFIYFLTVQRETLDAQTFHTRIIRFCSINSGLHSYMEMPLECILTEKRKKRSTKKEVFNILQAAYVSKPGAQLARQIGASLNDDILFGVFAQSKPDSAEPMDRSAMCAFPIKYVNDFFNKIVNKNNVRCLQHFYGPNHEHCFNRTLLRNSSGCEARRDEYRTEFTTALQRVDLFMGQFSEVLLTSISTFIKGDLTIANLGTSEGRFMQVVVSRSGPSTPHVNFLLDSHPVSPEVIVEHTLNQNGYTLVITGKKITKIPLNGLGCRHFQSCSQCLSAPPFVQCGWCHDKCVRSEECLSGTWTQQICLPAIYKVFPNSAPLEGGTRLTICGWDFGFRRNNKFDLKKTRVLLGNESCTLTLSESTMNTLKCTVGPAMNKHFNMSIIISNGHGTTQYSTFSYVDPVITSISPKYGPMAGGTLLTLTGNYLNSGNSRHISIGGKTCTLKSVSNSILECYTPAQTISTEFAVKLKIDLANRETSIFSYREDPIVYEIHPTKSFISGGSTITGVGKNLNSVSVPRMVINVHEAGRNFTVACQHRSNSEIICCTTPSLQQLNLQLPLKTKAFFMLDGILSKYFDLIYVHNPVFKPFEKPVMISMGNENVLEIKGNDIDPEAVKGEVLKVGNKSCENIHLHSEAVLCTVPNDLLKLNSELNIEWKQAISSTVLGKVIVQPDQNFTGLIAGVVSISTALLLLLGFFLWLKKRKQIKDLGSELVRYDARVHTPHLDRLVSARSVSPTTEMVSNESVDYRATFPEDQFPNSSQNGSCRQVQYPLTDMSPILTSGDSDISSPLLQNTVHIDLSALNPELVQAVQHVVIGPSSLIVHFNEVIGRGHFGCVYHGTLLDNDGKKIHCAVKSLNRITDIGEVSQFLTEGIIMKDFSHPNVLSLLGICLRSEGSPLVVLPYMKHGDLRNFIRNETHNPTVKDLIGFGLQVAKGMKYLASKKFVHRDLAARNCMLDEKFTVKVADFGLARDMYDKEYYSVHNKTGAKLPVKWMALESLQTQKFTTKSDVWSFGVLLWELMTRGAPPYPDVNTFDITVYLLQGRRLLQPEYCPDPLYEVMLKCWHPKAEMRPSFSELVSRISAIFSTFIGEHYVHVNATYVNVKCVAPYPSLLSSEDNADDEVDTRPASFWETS
Procedure, shortened: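 Eleven final concentrations from 2500 nM down to 0.042 nM, in 4% DMSO, were tested against human c-MET (2× stock 2 nM), with compound and enzyme premixed for 5 min. The phosphorylation reaction used 4× stock of 400 nM ULight-JAK-1 peptide and 40 μM ATP for 60 min at room temperature, then stop and detection steps. TR-FRET percent inhibition against positive and negative controls gave the IC50.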

VEGFR-2 kinase = VEGFR-2 kinase (Homo sapiens (Human), UniProt P35968); assay: Assay of small molecular compounds for inhibiting the activity of VEGFR-2 kinase (LANCE TR-FRET); format: biochemical; settings: read-out: VEGFR2 IC50
Sequence of VEGFR-2 kinase (P35968 20-1356): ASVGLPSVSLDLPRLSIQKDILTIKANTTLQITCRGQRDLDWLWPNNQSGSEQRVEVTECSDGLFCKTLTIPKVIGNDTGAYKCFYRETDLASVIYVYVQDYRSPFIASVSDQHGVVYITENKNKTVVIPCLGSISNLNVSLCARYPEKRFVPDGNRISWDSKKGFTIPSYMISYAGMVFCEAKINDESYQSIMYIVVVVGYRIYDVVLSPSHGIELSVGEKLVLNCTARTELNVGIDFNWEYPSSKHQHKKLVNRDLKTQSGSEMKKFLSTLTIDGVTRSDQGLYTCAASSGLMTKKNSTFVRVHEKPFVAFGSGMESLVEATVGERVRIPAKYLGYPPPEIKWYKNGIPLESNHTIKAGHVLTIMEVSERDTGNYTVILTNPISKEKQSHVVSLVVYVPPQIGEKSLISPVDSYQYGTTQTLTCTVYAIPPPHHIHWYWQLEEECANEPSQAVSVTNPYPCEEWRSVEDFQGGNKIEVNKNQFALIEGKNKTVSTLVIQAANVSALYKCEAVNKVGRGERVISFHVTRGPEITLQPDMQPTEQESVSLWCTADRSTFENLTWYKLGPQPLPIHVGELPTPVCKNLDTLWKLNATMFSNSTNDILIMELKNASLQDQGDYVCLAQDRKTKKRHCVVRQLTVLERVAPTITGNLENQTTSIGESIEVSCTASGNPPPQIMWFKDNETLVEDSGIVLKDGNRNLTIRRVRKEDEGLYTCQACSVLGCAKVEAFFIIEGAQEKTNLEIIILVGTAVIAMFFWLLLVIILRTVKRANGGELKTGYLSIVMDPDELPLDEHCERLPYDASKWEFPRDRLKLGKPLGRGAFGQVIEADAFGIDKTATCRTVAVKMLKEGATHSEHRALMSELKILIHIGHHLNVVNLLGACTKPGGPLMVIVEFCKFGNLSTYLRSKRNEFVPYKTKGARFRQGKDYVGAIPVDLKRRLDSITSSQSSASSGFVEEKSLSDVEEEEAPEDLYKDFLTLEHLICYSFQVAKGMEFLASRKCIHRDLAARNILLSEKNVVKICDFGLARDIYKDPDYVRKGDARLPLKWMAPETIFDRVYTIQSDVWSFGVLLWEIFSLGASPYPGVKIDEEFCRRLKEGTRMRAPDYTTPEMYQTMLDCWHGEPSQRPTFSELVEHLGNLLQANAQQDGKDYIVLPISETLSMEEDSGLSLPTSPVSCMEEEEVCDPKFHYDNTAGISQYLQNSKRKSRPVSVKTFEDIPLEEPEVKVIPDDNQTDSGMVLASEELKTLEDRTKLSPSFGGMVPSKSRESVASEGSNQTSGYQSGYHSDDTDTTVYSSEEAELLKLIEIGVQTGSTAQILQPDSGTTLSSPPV
Procedure, shortened: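 LANCE TR-FRET with human VEGFR-2 (2× stock 0.5 nM) preincubated 30 min with compound (final 2500 to 0.042 nM, 11-point 3-fold), then ULight-JAK-1 (Tyr1023) peptide/ATP added (4× stocks 200 nM/40 μM). Reaction 60 min room temperature, 4% DMSO; IC50 from inhibition-rate curve.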

IC50 (c-MET kinase) [nM] | IC50 (VEGFR-2 kinase) [nM] | SMILES | IC50 (EBC1 cells) [nM]
≤ 50 | ≤ 50 | CCOc1cc2nccc(Oc3ccc(NC(=O)c4c(OCC)ccn(-c5ccc(F)cc5)c4=O)cc3F)c2c2c1OCCO2 [Example 62, N-(4-((5-ethoxy-2,3-dihydro-[1,4]dioxino[2,3-f]quinolin-10-yl)oxy)-3-fluorophenyl)-4-ethoxy-1-(4-fluorophenyl)-2-oxo-1,2-dihydropyridine-3-carboxamide] | ≤ 50
≤ 50 | 500 to 5000 | COc1cc2nccc(Oc3ccc(NC(=O)c4cn(CCO)c(=O)n(-c5ccc(F)cc5)c4=O)cc3F)c2c2c1OCCO2 [Example 45, N-(3-fluoro-4-((5-methoxy-2,3-dihydro-[1,4]dioxino[2,3-f]quinolin-10-yl)oxy)phenyl)-3-(4-fluorophenyl)-1-(2-hydroxyethyl)-2,4-dioxo-1,2,3,4-tetrahydropyrimidine-5-carboxamide] | 50 to 200
≤ 50 | 500 to 5000 | CCOc1cn(-c2ccc(F)cc2C)nc1C(=O)Nc1ccc(Oc2ncnc3cc(OCCCN4CCOCC4)c4c(c23)OCCO4)c(F)c1 [Example 12, 1-(4-fluoro-2-methylphenyl)-N-(3-fluoro-4-((5-(3-morpholinopropoxy)-2,3-dihydro-[1,4]dioxino[2,3-f]quinazolin-10-yl)oxy)phenyl)-4-ethoxy-1H-pyrazole-3-carboxamide] | 200 to 1000
≤ 50 | 50 to 500 | COc1cc2ncnc(Oc3ccc(NC(=O)c4c(OC)ccn(-c5ccc(F)cc5)c4=O)cc3F)c2c2c1OCCO2 [Example 2, N-(3-fluoro-4-((5-methoxy-2,3-dihydro-[1,4]dioxino[2,3-f]quinazolin-10-yl)oxy)phenyl)-1-(4-fluorophenyl)-4-methoxy-2-oxo-1,2-dihydropyridine-3-carboxamide] | 50 to 200
≤ 50 | 500 to 5000 | COCCCOc1cc2nccc(Oc3ccc(NC(=O)c4cn(C)c(=O)n(-c5ccc(F)cc5)c4=O)cc3F)c2c2c1OCCO2 [Example 80, N-(3-fluoro-4-((5-(3-methoxypropoxy)-2,3-dihydro-[1,4]dioxino[2,3-f]quinolin-10-yl)oxy)phenyl)-3-(4-fluorophenyl)-1-methyl-2,4-dioxo-1,2,3,4-tetrahydropyrimidine-5-carboxamide] | ≤ 50
≤ 50 | ≤ 50 | CN1CCN(CCCOc2cc3nccc(Oc4ccc(NC(=O)c5cn(C)c(=O)n(-c6ccc(F)cc6)c5=O)cc4F)c3c3c2OCCO3)CC1 [Example 74, N-(3-fluoro-4-((5-(3-(4-methylpiperazin-1-yl)propoxy)-2,3-dihydro-[1,4]dioxino[2,3-f]quinolin-10-yl)oxy)phenyl)-3-(4-fluorophenyl)-1-methyl-2,4-dioxo-1,2,3,4-tetrahydropyrimidine-5-carboxamide] | ≤ 50
≤ 50 | ≤ 50 | CCOc1ccn(-c2ccc(F)cc2)c(=O)c1C(=O)Nc1ccc(Oc2ccnc3cc(OCCCN4CCN(C)CC4)c4c(c23)OCCO4)c(F)c1 [Example 49, N-(3-fluoro-4-((5-(3-(4-methylpiperazin-1-yl)propoxy)-2,3-dihydro-[1,4]dioxino[2,3-f]quinolin-10-yl)oxy)phenyl)-1-(4-fluorophenyl)-4-ethoxy-2-oxo-1,2-dihydropyridine-3-carboxamide] | ≤ 50
≤ 50 | ≤ 50 | CCOc1ccn(-c2ccc(F)cc2)c(=O)c1C(=O)Nc1ccc(Oc2ccnc3cc(OCCCC#N)c4c(c23)OCCO4)c(F)c1 [Example 57, N-(4-((5-(3-cyanopropoxy)-2,3-dihydro-[1,4]dioxino[2,3-f]quinolin-10-yl)oxy)-3-fluorophenyl)-4-ethoxy-1-(4-fluorophenyl)-2-oxo-1,2-dihydropyridine-3-carboxamide] | ≤ 50
≤ 50 | 500 to 5000 | COCCn1cc(C(=O)Nc2ccc(Oc3ccnc4cc(OC)c5c(c34)OCCO5)c(F)c2)c(=O)n(-c2ccc(F)cc2)c1=O [Example 46, N-(3-fluoro-4-((5-methoxy-2,3-dihydro-[1,4]dioxino[2,3-f]quinolin-10-yl)oxy)phenyl)-3-(4-fluorophenyl)-1-(2-methoxyethyl)-2,4-dioxo-1,2,3,4-tetrahydropyrimidine-5-carboxamide] | ≤ 50
≤ 50 | 50 to 500 | COc1cn(-c2ccc(F)cc2C)nc1C(=O)Nc1ccc(Oc2ncnc3cc(OCCCN4CCOCC4)c4c(c23)OCCO4)c(F)c1 [Example 11, 1-(4-fluoro-2-methylphenyl)-N-(3-fluoro-4-((5-(3-morpholinopropoxy)-2,3-dihydro-[1,4]dioxino[2,3-f]quinazolin-10-yl)oxy)phenyl)-4-methoxy-1H-pyrazole-3-carboxamide] | 200 to 1000
